Test results: ChEMBL document CHEMBL1201862, “PubChem BioAssay data set” (2004)
Activity calls are given as the source filed them.

How the values were obtained:
[1] = HEp-2 cell cytotoxicity, dose response, cytotoxicity control for RSV inhibitor project, HTS (AID 2410); assay type: functional; conditions: human respiratory syncytial virus
[2] = test system: Streptococcus sp. 'group A'; test: growth inhibition of control SK(-) GAS strain, dose response, counter-screen for streptokinase expression inhibitor project, luminescence, kanamycin, BacTiterGlo, confirmation (AID 1900); assay type: functional, organism-based
[3] = target: T1, Streptokinase A (Streptococcus pyogenes serotype M1, UniProt P10520); test: S. pyogenes streptokinase expression inhibitors, potency, dose response, plasminogen activation absorbance, OD405 (AID 1914); assay type: functional, Streptococcus pyogenes M1 GAS;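 further: secreted streptokinase activity via plasminogen activation per viability signal from cell pellet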
T1 sequence (P10520 whole entry): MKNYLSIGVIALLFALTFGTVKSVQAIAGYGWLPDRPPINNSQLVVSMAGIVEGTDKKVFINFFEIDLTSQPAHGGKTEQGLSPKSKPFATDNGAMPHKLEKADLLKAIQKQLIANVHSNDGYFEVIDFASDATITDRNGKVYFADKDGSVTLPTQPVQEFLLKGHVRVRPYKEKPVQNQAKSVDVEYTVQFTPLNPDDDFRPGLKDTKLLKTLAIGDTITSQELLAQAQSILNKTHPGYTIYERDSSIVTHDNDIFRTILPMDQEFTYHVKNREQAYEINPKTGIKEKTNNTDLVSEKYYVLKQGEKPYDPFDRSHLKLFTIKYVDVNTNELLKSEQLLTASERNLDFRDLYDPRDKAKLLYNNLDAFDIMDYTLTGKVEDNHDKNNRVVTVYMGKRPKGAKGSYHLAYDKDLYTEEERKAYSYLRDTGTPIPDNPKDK

[4] = test system: Streptococcus; test: Group A Streptococcus viability loss, dose response, counter-screen for streptokinase expression inhibitor project, luminescence, BacTiterGlo (AID 1915); assay type: functional, organism-based;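 further: potency for reduction of bacterial viability or growth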
[5] = target: Cytochrome P450 2D6 (Homo sapiens, UniProt P10635)
[6] = target: Cytochrome P450 2C19 (Homo sapiens, UniProt P33261); test: Cytochrome panel assay with activity outcomes. Panel member name: p450-cyp2c19 Compounds with AC50 equal or less than 10 uM are considered active; assay type: functional; conditions: read-out: AC50
[7] = test system: H4; test: Luminescence Cell-Based Dose Response HTS to Identify Activators of 5'UTR Stem-Loop Driven Prion Protein mRNA Translation in H4 Neuroglioblastoma Cells. [Related pubchem assays: 1829 (Project Summary), 1814 (Primary HTS)]; assay type: functional; conditions: Homo sapiens
[8] = Luminescence Cell-Based Dose Response HTS to Identify Activators of Luciferase Translation or Activity in H4 […] Cells. [Related pubchem assays: 1829 (Project Summary), 1814 (Primary HTS)]; assay type: functional
[9] = Luminescence Cell-Based Dose Retest to Confirm Inhibitors of Cancer Stem Cells. [Related pubchem assays (depositor defined):AID2717, AID2721]; assay type: functional; conditions: Homo sapiens
[10] = target: T2, Corticotropin-releasing factor receptor 2/Corticotropin-releasing factor-binding protein (Homo sapiens, UniProt P24387+Q13324); test: activators of CRF receptor 2 with binding protein – uHTS hits, confirmation (AID 602473); assay type: functional; conditions: read-out: EC50_Mean
T2 sequence (Q13324 whole entry): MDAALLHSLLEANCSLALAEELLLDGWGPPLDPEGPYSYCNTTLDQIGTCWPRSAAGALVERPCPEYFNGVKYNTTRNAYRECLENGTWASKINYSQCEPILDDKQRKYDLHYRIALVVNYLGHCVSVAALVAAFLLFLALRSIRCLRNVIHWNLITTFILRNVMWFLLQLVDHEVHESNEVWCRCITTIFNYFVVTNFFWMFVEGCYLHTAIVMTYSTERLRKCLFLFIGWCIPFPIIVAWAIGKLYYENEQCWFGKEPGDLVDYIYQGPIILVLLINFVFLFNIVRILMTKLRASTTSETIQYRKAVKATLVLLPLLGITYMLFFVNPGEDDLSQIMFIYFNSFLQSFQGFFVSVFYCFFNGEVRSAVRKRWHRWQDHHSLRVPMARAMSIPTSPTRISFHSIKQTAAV
T2 sequence (P24387 whole entry): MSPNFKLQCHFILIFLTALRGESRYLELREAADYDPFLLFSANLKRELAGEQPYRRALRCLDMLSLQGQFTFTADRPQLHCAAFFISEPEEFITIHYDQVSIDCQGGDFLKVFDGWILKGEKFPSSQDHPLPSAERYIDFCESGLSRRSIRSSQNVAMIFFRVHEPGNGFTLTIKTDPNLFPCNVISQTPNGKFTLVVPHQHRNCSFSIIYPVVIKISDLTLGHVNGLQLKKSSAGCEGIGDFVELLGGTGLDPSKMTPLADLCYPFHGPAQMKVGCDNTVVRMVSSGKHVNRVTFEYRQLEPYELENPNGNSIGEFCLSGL

[11] = control 3'UTR Renilla luciferase suppression, dose response, counter-screen for Shn3 inhibitor project, cell-based, Clone20-Shn3RL, cherry-picked (AID 624133); assay type: functional
[12] = target: T3, Cytochrome P450 1A2 (Homo sapiens, UniProt P05177);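 further: PubChem cytochrome P450 panel assay, CYP1A2 panel member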
T3 sequence (P05177 whole entry): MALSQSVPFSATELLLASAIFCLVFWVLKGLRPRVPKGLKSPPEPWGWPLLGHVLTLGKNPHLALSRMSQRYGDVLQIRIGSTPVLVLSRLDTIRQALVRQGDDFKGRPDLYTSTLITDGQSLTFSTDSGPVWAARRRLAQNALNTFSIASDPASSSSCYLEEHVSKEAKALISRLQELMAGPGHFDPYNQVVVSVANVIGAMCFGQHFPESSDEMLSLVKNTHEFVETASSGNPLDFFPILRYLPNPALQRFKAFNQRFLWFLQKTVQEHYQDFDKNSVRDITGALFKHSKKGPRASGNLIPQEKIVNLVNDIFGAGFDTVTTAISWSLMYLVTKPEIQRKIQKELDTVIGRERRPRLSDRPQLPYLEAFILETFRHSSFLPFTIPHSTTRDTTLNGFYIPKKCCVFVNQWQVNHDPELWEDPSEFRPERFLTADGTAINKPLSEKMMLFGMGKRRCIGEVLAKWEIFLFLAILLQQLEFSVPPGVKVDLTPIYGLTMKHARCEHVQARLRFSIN

Sequence of Cytochrome P450 2D6 (P10635 whole entry): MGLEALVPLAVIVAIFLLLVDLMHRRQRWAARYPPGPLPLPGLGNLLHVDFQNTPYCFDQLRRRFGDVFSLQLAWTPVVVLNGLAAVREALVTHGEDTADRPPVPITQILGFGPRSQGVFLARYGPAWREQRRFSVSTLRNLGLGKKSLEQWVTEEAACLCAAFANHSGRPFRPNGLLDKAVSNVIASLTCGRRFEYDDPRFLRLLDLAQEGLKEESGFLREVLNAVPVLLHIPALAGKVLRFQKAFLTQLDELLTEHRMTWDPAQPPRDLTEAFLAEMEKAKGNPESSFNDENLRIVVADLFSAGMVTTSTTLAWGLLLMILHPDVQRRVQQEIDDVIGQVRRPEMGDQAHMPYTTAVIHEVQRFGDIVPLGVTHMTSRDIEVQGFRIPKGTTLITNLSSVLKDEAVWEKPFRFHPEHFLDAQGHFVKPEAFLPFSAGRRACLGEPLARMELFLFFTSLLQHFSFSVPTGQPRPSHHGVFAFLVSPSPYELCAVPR
Sequence of Cytochrome P450 2C19 (P33261 whole entry): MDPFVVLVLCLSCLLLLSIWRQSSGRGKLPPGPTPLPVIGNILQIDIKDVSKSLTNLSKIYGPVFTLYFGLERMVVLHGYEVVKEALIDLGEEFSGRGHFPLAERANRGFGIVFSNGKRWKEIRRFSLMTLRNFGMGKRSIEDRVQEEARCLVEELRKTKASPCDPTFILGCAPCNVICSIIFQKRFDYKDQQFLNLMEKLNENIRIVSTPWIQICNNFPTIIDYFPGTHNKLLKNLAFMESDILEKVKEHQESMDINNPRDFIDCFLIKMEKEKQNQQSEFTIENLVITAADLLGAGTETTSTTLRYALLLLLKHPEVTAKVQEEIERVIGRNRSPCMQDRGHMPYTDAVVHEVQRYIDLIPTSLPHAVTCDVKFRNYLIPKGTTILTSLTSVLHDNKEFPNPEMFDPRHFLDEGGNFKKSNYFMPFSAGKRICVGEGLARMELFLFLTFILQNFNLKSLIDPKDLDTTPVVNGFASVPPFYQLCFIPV

CCOC(=O)c1c(NC(=O)/C=C\C(=O)O)sc(C)c1-c1ccccc1
CC50 [1]: 19.4 µM (active)

COc1ccc(C(=O)NC2CCCCCC2)cc1S(=O)(=O)N1CCOCC1
EC50 [2]: > 150 µM (not active)
EC50 [3]: > 150 µM (not active)
EC50 [4]: > 150 µM (not active)

CC(C)c1nc(N2CCCC2)c(C#N)c2c1CCCC2
EC50 [2]: 4.2 µM (active)
EC50 [3]: > 150 µM (not active)
EC50 [4]: 7.01 µM (active)

CN(C)/C=C1\SC(=S)N(c2ccc(Br)cc2)C1=O
EC50 [2]: 7.37 µM (active)
EC50 [3]: 17.2 µM (active)
EC50 [4]: 52.3 µM (active)

Clc1ccccc1CN(Cc1ccccc1)c1ncnc2nc[nH]c12
EC50 [3]: > 150 µM (not active)

COc1ccc(-c2cnc(SCC(=O)Nc3nc(C(C)(C)C)cs3)n2Cc2ccco2)cc1
CC50 [1]: 9.59 µM (active)

CC(C)S(=O)(=O)c1csc(NC(=O)Nc2ccc(Cl)cc2)c1Cl
EC50 [2]: 12.1 µM (active)
EC50 [3]: 74.3 µM (active)
EC50 [4]: > 150 µM (not active)

Cc1ccccc1OCC(=O)Nc1ccccc1N1CCC(C)CC1
EC50 [2]: 6.64 µM (active)
EC50 [3]: 45 µM (active)
EC50 [4]: 11.1 µM (active)

N=C(N)S[C@H]1c2ccccc2-c2cc([N+](=O)[O-])ccc21
AC50 [5]: 2.51 µM (inconclusive)
AC50 [6]: 0.631 µM (inconclusive)

O=C(Nc1ccccc1)N1CCC2(CCNCC2)CC1
AC50 [5]: 25.1 µM (inconclusive)

CC(=O)c1cccc(NC(=O)C(=O)Nc2cccc3ccccc23)c1
EC50 [7]: 10.7 µM (active)
EC50 [8]: 13.3 µM (active)

c1ccc(CCNc2nc(-c3ccccn3)cs2)cc1
EC50 [2]: 7.29 µM (active)
EC50 [3]: > 150 µM (not active)
EC50 [4]: 14.2 µM (active)

COc1cc(OC)cc(C(=O)Nc2nc3ccccc3[nH]2)c1
EC50 [2]: 7.14 µM (active)
EC50 [3]: > 150 µM (not active)
EC50 [4]: > 150 µM (not active)

O=C(Nc1ccc(-c2cn3ccsc3n2)cc1)C1CC1
EC50 [7]: 4.21 µM (active)
EC50 [8]: 0.487 µM (active)

COc1ccc(-c2nc(N)nc(C)c2Oc2ccccc2Br)c(O)c1
AC50 [9]: 1.96 µM (active)

CC(=O)c1ccc(NC(=S)NC(=O)Cc2ccc(Cl)cc2)cc1
EC50 [10]: 13.2 µM (active)

CCC(C)Sc1cccc(-c2nc3cc(C)ccn3c2NCc2ccccc2)c1 (stereo not given)
AC50 [9]: 5.14 µM (active)

COc1ccc(C2CC(c3ccc(Br)cc3)=NN2C(=O)CSC2=NCCS2)cc1 (stereo not given)
CC50 [1]: 24.1 µM (active)

Cc1ccc2c[nH]nc2c1[N+](=O)[O-]
CC50 [1]: 42.8 µM (active)

CN(C)Cc1ccccc1-c1cc(NCc2ccccc2)ncn1
AC50 [5]: 15.8 µM (inconclusive)

O=CNn1cnc2c(oc3nc(-c4ccccc4)cc(-c4ccco4)c32)c1=O
CC50 [1]: 9.82 µM (active)

O=C1NC(=O)/C(=C/c2c[nH]c3ccc(Br)cc23)N1
CC50 [1]: 24.8 µM (active)

CC(=O)Nc1ccc(-c2csc(NC(=O)Cc3ccccc3F)n2)cc1
AC50 [9]: 9.04 µM (active)

Cc1cccc(CNc2cc(-c3cccc(C#N)c3)ncn2)c1
AC50 [5]: 25.1 µM (inconclusive)

CC(=O)c1cccc(NC(=S)NC(=O)Cc2ccc(Cl)cc2)c1
EC50 [10]: > 53 µM (inactive)

COc1c(C)cc(C(=O)C2CCCN(C(=O)c3cccc(-n4cccn4)c3)C2)cc1C (stereo not given)
AC50 [11]: > 70 µM (inactive)

O=C(Nc1ccc(OC(F)(F)F)cc1)C1CCCN(S(=O)(=O)c2c[nH]cn2)C1 (stereo not given)
EC50 [2]: > 150 µM (not active)
EC50 [3]: > 150 µM (not active)
EC50 [4]: > 150 µM (not active)

FC(F)(F)c1ccccc1-c1cc(NCc2cccs2)ncn1
AC50 [5]: 25.1 µM (inconclusive)

Cc1ccc(Cn2nnc3c(O)nc(C4CCN(C(=O)Cc5cccs5)CC4)nc32)cc1
AC50 [5]: 17.8 µM (inconclusive)
AC50 [12]: 31.6 µM (inconclusive)

CCOC(=O)c1ccc(COC(=O)c2ccc3c(c2)-c2ccccc2C3=O)cc1
CC50 [1]: 20.8 µM (active)

O=C1C=C(c2cc(C(F)(F)F)cc(C(F)(F)F)c2)C[C@@H](c2ccc(Cl)cc2)C1
CC50 [1]: 17.3 µM (active)

CC(=O)Nc1ccc(C2CC(c3ccc(Cl)cc3)=NN2c2ccccc2)cc1 (stereo not given)
CC50 [1]: 47.5 µM (active)
AC50 [9]: 1.64 µM (active)

Oc1cccc(Nc2nc(O)c(/C=C3\C=Nc4ccccc43)s2)c1
CC50 [1]: 15.3 µM (active)

CCC(C)c1ccc(C(C)N=C(S)NC2CCCCC2)cc1 (stereo not given)
EC50 [2]: 8.05 µM (active)
EC50 [3]: 146 µM (active)
EC50 [4]: 18.1 µM (active)

COc1ccc2[nH]cc(CCNc3ncnc4ccc(-c5cccc(C#N)c5)cc34)c2c1
AC50 [5]: 3.16 µM (inconclusive)

CCOc1ccc(CCNC(=O)C2CC(=O)N(C3CCCC3)C2)cc1OCC (stereo not given)
AC50 [5]: 0.0282 µM (inconclusive)
AC50 [6]: 0.0631 µM (inconclusive)

CCOc1cc(/C=N/O)cc(Br)c1OCc1ccc(Cl)cc1
AC50 [9]: 3.77 µM (active)

O=[N+]([O-])c1ccc(-c2ccc(/C=N/Nc3nc(N4CCCCC4)nc(N4CCCCC4)n3)o2)cc1
EC50 [10]: 5.96 µM (active)

O=C(Cn1nc(C(F)F)cc1C(F)F)N/N=C/c1ccc2c(c1)OCO2
AC50 [5]: 2.82 µM (inconclusive)

C(=N\Nc1nc(N2CCCCCC2)nc(N2CCCCCC2)n1)/c1ccccc1
CC50 [1]: 28.4 µM (active)

O=c1c(-c2ccccc2)coc2cc(O)ccc12 [7-HYDROXY ISOFLAVONE]
CC50 [1]: 46.3 µM (active)
